Measurements reported in the supplement of paper PMC11208160.

Test: recombinant barcode read abundance after kanamycin selection (control-corrected) (log10(CPM+1)); higher = more efficient recombination; sequences stand for … in AGTGCAGAGAAAATCGGCCAGTTTTCTCTGCCTGCAGTCCGCATGCCGT…AGATTTATGCAGCGGACTGCCTTTCTCCCAAAGTGATAAACCGGACAGTATCATGGACCGGTTTTCCCGGTAATCCGTATTTGCAAGGTTGGTTTCACT; site = the 11-nt target
Summary of the method: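 For this pooled screen, each oligo contained a promoter, a target, a barcode and the J23119-driven first 104 bases of the bridge RNA. Gibson cloning placed it into a vector supplying the remaining 73 bp and a T7-inducible recombinase, and the pool was co-electroporated into E. coli with a donor plasmid. Recombination efficiency is derived from barcode counts per million at recombinant junctions after averaging and control correction, and is expressed on a log scale as log10(CPM+1), with selection on chloramphenicol/ampicillin/kanamycin plus 0.1 mM IPTG against a chloramphenicol/ampicillin LB agar control.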
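Further: IS621 recombinase and bridge RNA in Escherichia coli cells.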

“CTAGATTCTTGGGTTCTAACCTGTTGCCT (site CAAGATTCTAG)” and “CTAGATTCTTGGGTTCTAACCTGTTGCCT (site CCAGATTCTAG)” are within 0.2 log units of each other in “recombinant barcode read abundance (log10)” value: 0.167 for the first, 0.116 for the second.

Compared with “CTAGATTCTTGGGTTCTAACCTGTTGCCT (site CGAGATTCTAG)”, “CTAGATTCTTGGGTTCTAACCTGTTGCCT (site CTAGATTCTAG)” is higher in “recombinant barcode read abundance (log10)” value: 0.077 for the first, 1.49 for the second.

Compared with “CTAGCCGCTTGGGTTCTAACCTGTTGCTT (site AGCCTATCTTG)”, “CTAGCCGCTTGGGTTCTAACCTGTTGCTT (site CTAGCCGCTAA)” is higher in “recombinant barcode read abundance (log10)” value: 0.119 for the first, 1.03 for the second.

First: CTAGCGGCTTGGGTTCTAACCTGTTGCAG (site CTAGCGGCTCT)
Second: CTAGCGGCTTGGGTTCTAACCTGTTGCAG (site CTAGCTCCTCT)
The “recombinant barcode read abundance (log10)” value of the first is higher: 2.05 for the first, 0.0734 for the second.

Compared with “CTAGGCCCTTGGGTTCTAACCTGTTGCCT (site CTAGGCCCTAA)”, “CTAGGCCCTTGGGTTCTAACCTGTTGCCT (site CTAGGCCCTAC)” is higher in “recombinant barcode read abundance (log10)” value: 0.584 for the first, 2.1 for the second.

Compared with “CTAGGCCCTTGGGTTCTAACCTGTTGCCT (site CTAGGCCCTAG)”, “CTAGGCCCTTGGGTTCTAACCTGTTGCCT (site CTAGGCCCTAT)” is higher in “recombinant barcode read abundance (log10)” value: 0.184 for the first, 0.506 for the second.

Compared with “CTAGGCCCTTGGGTTCTAACCTGTTGCTT (site CTAGGCCCTAA)”, “CTAGGCCCTTGGGTTCTAACCTGTTGCTT (site CTAGGCCCTAC)” is lower in “recombinant barcode read abundance (log10)” value: 0.563 for the first, 0.18 for the second.

Compared with “CTAGGCCCTTGGGTTCTAACCTGTTGCTT (site CTAGGCCCTAG)”, “CTAGGCCCTTGGGTTCTAACCTGTTGCTT (site CTAGGCCCTAT)” is higher in “recombinant barcode read abundance (log10)” value: 0.229 for the first, 0.939 for the second.

Going from “CTAGTACCTTGGGTTCTAACCTGTTGCCT (site CTAGTACCTAG)” to “CTAGTACCTTGGGTTCTAACCTGTTGCCT (site TTAGTAACTAG)”, the “recombinant barcode read abundance (log10)” value falls from 1.43 to 0.0602.

Going from “CTAGTAGCTTGGGTTCTAACCTGTTGCGG (site CTAGTAGCTAC)” to “CTAGTAGCTTGGGTTCTAACCTGTTGCGG (site CTAGTAGCTCC)”, the “recombinant barcode read abundance (log10)” value rises from 0.553 to 1.56.

Compared with “CTAGTCCCTTGGGTTCTAACCTGTTGCCG (site CTAGTCCCTCG)”, “CTAGTCCCTTGGGTTCTAACCTGTTGCCG (site TTAGTCCCTCG)” is lower in “recombinant barcode read abundance (log10)” value: 1.79 for the first, 0.176 for the second.

First: CTAGTGGCTTGGGTTCTAACCTGTTGCCG (site CTAGTGGCTCG)
Second: CTAGTGGCTTGGGTTCTAACCTGTTGCCG (site TCGTCACCTAT)
The “recombinant barcode read abundance (log10)” value of the first is higher: 1.3 for the first, 0.0446 for the second.

Compared with “CTATAGACTTGGGTTCTAACCTGTTGCCT (site CTATAGACTAG)”, “CTATAGACTTGGGTTCTAACCTGTTGCCT (site CTATCGACTAG)” is lower in “recombinant barcode read abundance (log10)” value: 1.11 for the first, 0.163 for the second.

“CTATAGACTTGGGTTCTAACCTGTTGCCT (site CTATGGACTAG)” and “CTATAGACTTGGGTTCTAACCTGTTGCCT (site CTATTGACTAG)” are within 0.2 log units of each other in “recombinant barcode read abundance (log10)” value: 0.475 for the first, 0.317 for the second.

First: CTATCCACTTGGGTTCTAACCTGTTGCCT (site CTATCCACTAG)
Second: CTATCCACTTGGGTTCTAACCTGTTGCCT (site CTGTCGACTAG)
The “recombinant barcode read abundance (log10)” value of the first is higher: 1.63 for the first, 0.873 for the second.

“CTATGACCTTGGGTTCTAACCTGTTGCCT (site CTATGACCTAA)” and “CTATGACCTTGGGTTCTAACCTGTTGCCT (site CTATGACCTAC)” are within 0.2 log units of each other in “recombinant barcode read abundance (log10)” value: 0.124 for the first, 0.23 for the second.

First: CTATGACCTTGGGTTCTAACCTGTTGCCT (site CTATGACCTAG)
Second: CTATGACCTTGGGTTCTAACCTGTTGCCT (site CTATGACCTAT)
The “recombinant barcode read abundance (log10)” value of the first is higher: 1.9 for the first, 0.104 for the second.

“CTATGTGCTTGGGTTCTAACCTGTTGCTT (site CTATGTGCTAA)” and “CTATGTGCTTGGGTTCTAACCTGTTGCTT (site CTATGTGCTAC)” are within 0.2 log units of each other in “recombinant barcode read abundance (log10)” value: 0.337 for the first, 0.37 for the second.
